Test system: 463943-066-T-J2-PDC complex spheroid growth
Assay: Anticancer human tumor 463943-066-T-J2-PDC patient-derived colon adenocarcinoma cell line growth inhibition [Asc]
Conditions: for IC50: curve of first compound; for viability, T/C: stronger effect = lower value
In short: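 Stromal components (HUVEC and hMSC) are co-assembled with the cancer cells into multicellular spheroids. Drugs are then added singly or paired, at concentrations falling by half-log increments from a clinically achievable maximum, capped at 10 microM without known Cmax.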

[1] = second compound 0.00949 µM, first compound 0.0316 µM
[2] = second compound 0.00949 µM, first compound 0.1 µM
[3] = second compound 0.00949 µM, first compound 0.316 µM
[4] = second compound 0.00949 µM, first compound 1 µM
[5] = second compound 0.00949 µM, first compound 3.16 µM
[6] = second compound 0.00949 µM, first compound 10 µM
[7] = second compound 0.03 µM, first compound 0.0316 µM
[8] = second compound 0.03 µM, first compound 0.1 µM
[9] = second compound 0.03 µM, first compound 0.316 µM
[10] = second compound 0.03 µM, first compound 1 µM
[11] = second compound 0.03 µM, first compound 3.16 µM
[12] = second compound 0.03 µM, first compound 10 µM
[13] = second compound 0.0949 µM, first compound 0.0316 µM
[14] = second compound 0.0949 µM, first compound 0.1 µM
[15] = second compound 0.0949 µM, first compound 0.316 µM
[16] = second compound 0.0949 µM, first compound 1 µM
[17] = second compound 0.0949 µM, first compound 3.16 µM
[18] = second compound 0.0949 µM, first compound 10 µM
[19] = second compound 0.3 µM, first compound 0.0316 µM
[20] = second compound 0.3 µM, first compound 0.1 µM
[21] = second compound 0.3 µM, first compound 0.316 µM
[22] = second compound 0.3 µM, first compound 1 µM
[23] = second compound 0.3 µM, first compound 3.16 µM
[24] = second compound 0.3 µM, first compound 10 µM
[25] = second compound 0.949 µM, first compound 0.0316 µM
[26] = second compound 0.949 µM, first compound 0.1 µM
[27] = second compound 0.949 µM, first compound 0.316 µM
[28] = second compound 0.949 µM, first compound 1 µM
[29] = second compound 0.949 µM, first compound 3.16 µM
[30] = second compound 0.949 µM, first compound 10 µM
[31] = second compound 3 µM, first compound 0.0316 µM
[32] = second compound 3 µM, first compound 0.1 µM
[33] = second compound 3 µM, first compound 0.316 µM
[34] = second compound 3 µM, first compound 1 µM
[35] = second compound 3 µM, first compound 3.16 µM
[36] = second compound 3 µM, first compound 10 µM
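Also: compound exposure lasted 7 days.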
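For viability, T/C in this document: 100% = DMSO vehicle control wells.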

Question: What does the source list for `C=C(F)C(=O)N1CCN(c2nc(OCC3CCCN3C)nc3c2CCN(c2cccc4cccc(Cl)c24)C3)CC1CC#N` (stereo unspecified) + CCN1C(C(=O)NC23CCC(C(=O)O)(CC2)CC3)C(c2cccc(Cl)c2F)C2(C(=O)Nc3cc(Cl)ccc32)C12CCCCC2?
Answer: IC50 (second compound 0.00949 µM): 6.05 µM; IC50 (second compound 0.03 µM): 6.36 µM; IC50 (second compound 0.0949 µM): 6.24 µM; IC50 (second compound 0.3 µM): 6.01 µM; IC50 (second compound 0.949 µM): 6.26 µM; IC50 (second compound 3 µM): 5.8 µM; viability, T/C [1]: 97.4%; viability, T/C [2]: 92.9%; viability, T/C [3]: 103%; viability, T/C [4]: 104%; viability, T/C [5]: 91.9%; viability, T/C [6]: 17.2%; viability, T/C [7]: 93.4%; viability, T/C [8]: 93.9%; viability, T/C [9]: 93.1%; viability, T/C [10]: 101%; viability, T/C [11]: 97.3%; viability, T/C [12]: 20.3%; viability, T/C [13]: 91.7%; viability, T/C [14]: 87.3%; viability, T/C [15]: 88.3%; viability, T/C [16]: 97.8%; viability, T/C [17]: 87.3%; viability, T/C [18]: 23.9%; viability, T/C [19]: 82%; viability, T/C [20]: 85.4%; viability, T/C [21]: 83.6%; viability, T/C [22]: 90.5%; viability, T/C [23]: 79.1%; viability, T/C [24]: 26.3%; viability, T/C [25]: 71.9%; viability, T/C [26]: 81%; viability, T/C [27]: 76%; viability, T/C [28]: 83.6%; viability, T/C [29]: 78.1%; viability, T/C [30]: 30.8%; viability, T/C [31]: 70.8%; viability, T/C [32]: 71.5%; viability, T/C [33]: 74%; viability, T/C [34]: 78.9%; viability, T/C [35]: 77.5%; viability, T/C [36]: 28%

Question: With `C=CC(=O)N1CCN(c2nc(=O)n(-c3c(C)ccnc3C(C)C)c3nc(-c4c(O)cccc4F)c(F)cc23)C(C)C1` (stereo unspecified) + CCN1C(C(=O)NC23CCC(C(=O)O)(CC2)CC3)C(c2cccc(Cl)c2F)C2(C(=O)Nc3cc(Cl)ccc32)C12CCCCC2 as the compound, how does the IC50 (second compound 0.00949 µM) read?
Answer: > 10 µM

Question: And the IC50 (second compound 0.03 µM)?
Answer: > 10 µM

Question: What about the IC50 (second compound 0.0949 µM) of the same compound?
Answer: > 10 µM

Question: And the IC50 (second compound 0.3 µM)?
Answer: > 10 µM

Question: What about the IC50 (second compound 0.949 µM) of the same compound?
Answer: > 10 µM

Question: And the IC50 (second compound 3 µM)?
Answer: > 10 µM

Question: What about the viability, T/C [1] of the same compound?
Answer: 94.4%

Question: And the viability, T/C [2]?
Answer: 96.5%

Question: What about the viability, T/C [3] of the same compound?
Answer: 93%

Question: What about the viability, T/C [4] of the same compound?
Answer: 107%

Question: What about the viability, T/C [5] of the same compound?
Answer: 104%

Question: What about the viability, T/C [6] of the same compound?
Answer: 98%

Question: What about the viability, T/C [7] of the same compound?
Answer: 108%

Question: What about the viability, T/C [8] of the same compound?
Answer: 96.8%

Question: And the viability, T/C [9]?
Answer: 99.9%

Question: What about the viability, T/C [10] of the same compound?
Answer: 103%

Question: What about the viability, T/C [11] of the same compound?
Answer: 104%

Question: And the viability, T/C [12]?
Answer: 88.4%

Question: What about the viability, T/C [13] of the same compound?
Answer: 92.4%

Question: What about the viability, T/C [14] of the same compound?
Answer: 88.6%

Question: What about the viability, T/C [15] of the same compound?
Answer: 91%

Question: What about the viability, T/C [16] of the same compound?
Answer: 93.2%

Question: What about the viability, T/C [17] of the same compound?
Answer: 97.3%

Question: And the viability, T/C [18]?
Answer: 86.3%

Question: What about the viability, T/C [19] of the same compound?
Answer: 84.4%

Question: What about the viability, T/C [20] of the same compound?
Answer: 84.8%

Question: And the viability, T/C [21]?
Answer: 86.2%

Question: What about the viability, T/C [22] of the same compound?
Answer: 85.5%

Question: What about the viability, T/C [23] of the same compound?
Answer: 86.7%

Question: And the viability, T/C [24]?
Answer: 80.3%

Question: And the viability, T/C [25]?
Answer: 76.5%

Question: What about the viability, T/C [26] of the same compound?
Answer: 77%

Question: And the viability, T/C [27]?
Answer: 74%

Question: And the viability, T/C [28]?
Answer: 77%

Question: What about the viability, T/C [29] of the same compound?
Answer: 78.2%

Question: What about the viability, T/C [30] of the same compound?
Answer: 77%

Question: And the viability, T/C [31]?
Answer: 71.7%

Question: What about the viability, T/C [32] of the same compound?
Answer: 73.3%

Question: And the viability, T/C [33]?
Answer: 75.9%

Question: What about the viability, T/C [34] of the same compound?
Answer: 77.6%

Question: What about the viability, T/C [35] of the same compound?
Answer: 72.5%

Question: And the viability, T/C [36]?
Answer: 72.5%

Question: Which IC50 (second compound 0.00949 µM) does the source give for `COc1c(OCCCN2CCOCC2)ccc2c3n(c(=NC(=O)c4cnc(N)nc4)nc12)CCN3` + CCN1C(C(=O)NC23CCC(C(=O)O)(CC2)CC3)C(c2cccc(Cl)c2F)C2(C(=O)Nc3cc(Cl)ccc32)C12CCCCC2 here?
Answer: 0.41 µM

Question: And the IC50 (second compound 0.03 µM)?
Answer: 0.271 µM

Question: And the IC50 (second compound 0.0949 µM)?
Answer: 0.231 µM

Question: What about the IC50 (second compound 0.3 µM) of the same compound?
Answer: 0.0711 µM

Question: And the IC50 (second compound 0.949 µM)?
Answer: 0.0447 µM

Question: And the IC50 (second compound 3 µM)?
Answer: 0.0608 µM

Question: And the viability, T/C (second compound 0.00949 µM, first compound 0.00316 µM)?
Answer: 89.5%

Question: What about the viability, T/C (second compound 0.00949 µM, first compound 0.01 µM) of the same compound?
Answer: 82.9%

Question: And the viability, T/C [1]?
Answer: 74%

Question: And the viability, T/C [2]?
Answer: 69.2%

Question: And the viability, T/C [3]?
Answer: 51.2%

Question: And the viability, T/C [4]?
Answer: 39.4%

Question: And the viability, T/C (second compound 0.03 µM, first compound 0.00316 µM)?
Answer: 95.3%

Question: And the viability, T/C (second compound 0.03 µM, first compound 0.01 µM)?
Answer: 88.5%

Question: What about the viability, T/C [7] of the same compound?
Answer: 71.5%

Question: And the viability, T/C [8]?
Answer: 61.2%

Question: And the viability, T/C [9]?
Answer: 50.3%

Question: What about the viability, T/C [10] of the same compound?
Answer: 33.7%

Question: And the viability, T/C (second compound 0.0949 µM, first compound 0.00316 µM)?
Answer: 87.3%

Question: And the viability, T/C (second compound 0.0949 µM, first compound 0.01 µM)?
Answer: 84.1%

Question: What about the viability, T/C [13] of the same compound?
Answer: 71.4%

Question: And the viability, T/C [14]?
Answer: 59.3%

Question: And the viability, T/C [15]?
Answer: 47.4%

Question: And the viability, T/C [16]?
Answer: 33.6%

Question: And the viability, T/C (second compound 0.3 µM, first compound 0.00316 µM)?
Answer: 73%

Question: What about the viability, T/C (second compound 0.3 µM, first compound 0.01 µM) of the same compound?
Answer: 72.5%

Question: What about the viability, T/C [19] of the same compound?
Answer: 61.9%

Question: What about the viability, T/C [20] of the same compound?
Answer: 44.4%

Question: What about the viability, T/C [21] of the same compound?
Answer: 37.1%

Question: And the viability, T/C [22]?
Answer: 32%

Question: And the viability, T/C (second compound 0.949 µM, first compound 0.00316 µM)?
Answer: 68.5%

Question: What about the viability, T/C (second compound 0.949 µM, first compound 0.01 µM) of the same compound?
Answer: 62.5%

Question: And the viability, T/C [25]?
Answer: 53.4%

Question: What about the viability, T/C [26] of the same compound?
Answer: 42.2%

Question: And the viability, T/C [27]?
Answer: 35.1%

Question: And the viability, T/C [28]?
Answer: 30.4%

Question: What about the viability, T/C (second compound 3 µM, first compound 0.00316 µM) of the same compound?
Answer: 65.3%

Question: And the viability, T/C (second compound 3 µM, first compound 0.01 µM)?
Answer: 64.4%

Question: And the viability, T/C [31]?
Answer: 53.7%

Question: What about the viability, T/C [32] of the same compound?
Answer: 45.4%

Question: What about the viability, T/C [33] of the same compound?
Answer: 39.1%

Question: And the viability, T/C [34]?
Answer: 29.8%
